According to patent US20100112012A1, “MODULATION OF IMMUNE RESPONSES” (CLEVELAND CLINIC FOUNDATION, priority 2005, published 2010):

Tests used:
[1] = tested on: p53; assay: Screening for p53-activating compounds, p53-responsive reporter in RCC45ConALacZ cells; assay type: cell-based, human
Protocol: (§1) Transient transfections. 2×10^5 cells were plated into 6-well plates and, after overnight incubation, transfected with Lipofectamin Plus reagent (Gibco BRL) with 0.5 μg of reporter plasmids (p21-ConALuc or pNF-κBLuc) in combination with different concentrations of plasmids expressing p53, Arf, Ss-IκB, or siHDM2. Corresponding empty vectors were added in all transfections up to 2 μg of total DNA. Normalization of transfection efficiency was done by adding 0.2 μg of pCMV-LacZ plasmid. Luciferase activity and β-galactosidase activity were measured in lysates prepared 48 hours after transfection with Cell Lysis Buffer (Promega) by the luciferase assay system (Promega) or β-galactosidase enzyme system (Promega). Luminometric and colorimetric reactions were read on the Wallack 1420 plate reader (Perkin Elmer). Stable transduction of reporters. 2×10^4 cells with integrated reporter were plated in 96-well plates. After overnight incubation, chemicals or media from lentivirus-producing cells were added. At different times, cell lysates were prepared using Reporter Lysis Buffer (Promega). Luciferase or β-galactosidase activity and protein concentration were measured in aliquots of cell lysates using standard kits (Promega, Luciferase and β-galactosidase assay systems, Biorad Protein Assay Kit).
The DiverSet library of 34,000 chemical compounds and focused libraries of structural analogues of selected hits were provided by Chembridge, Calif. Cell lines with p53- or NF-κB-responsive luciferase or β-galactosidase reporters were described previously (5, 7). For screening chemicals, 2×10^4 RCC45ConALacZ cells (RCC45-based p53 reporter cells) were plated per well of 96-well plates in 200 μL of phenol-red-free RPMI medium with standard additions. After overnight incubation, the compounds were added to final concentrations of 5-15 μM (0.2 μL of compound in DMSO per well). […] After 24 h, lysis buffer with ortho-nitrophenyl-β-D-galactopyranoside (ONPG) was added and β-galactosidase activity was estimated colorimetrically by a multiwell plate reader.

[2] = tested on: p53; assay: p53-responsive reporter activity in tumor cells (HT1080 and others); assay type: cell-based, human
Protocol: as §1

[3] = tested on: p53; assay: p53 reporter in organ cultures of human RCC tumor samples; assay type: cell-based; details: organ cultures of adjacent normal kidney, 12 hours
Protocol: FIG. 11. QC can activate p53 transactivation in organ cultures of human RCC tumor samples. Fresh surgically removed samples of tumor and adjacent normal kidney were cut into small pieces and put into media containing ConALacZ virus (5×10^7 TU/ml) with […] of polybrene for 4 hours. 24 hours after infection, tissue pieces (at least three per treatment) were incubated with media containing quinacrine or doxorubicin for 12 hours. Then the tissues were fixed for 30 min in PBS containing 0.5% glutaraldehyde and 1 mM MgCl2. Pieces of tumor were stained in PBS solution containing X-gal (1 mM MgCl2, 3.3 mM K4Fe(CN)6, 3.3 mM K3Fe(CN)6, 0.02% NP40, 0.2% X-gal) overnight at 37° C. Stained specimens were analyzed microscopically by squeezing pieces of tumor and normal tissues between two glass slides.

[4] = tested on: p53-deficient cells; assay: Survival of isogenic pairs of tumor cells differing in p53 expression; details: isogenic pairs of cell lines, shRNA-mediated p53 knockdown
Protocol: All cells were maintained in RPMI 1640 medium, supplemented with 10% FBS, 1 mM sodium pyruvate, 10 mM Hepes buffer, 55 nM β-mercaptoethanol and antibiotics. […] Cells with inhibited p53 expression were generated by retroviral transduction of pBabeH1-sip53 or pBabeH1-siGFP vectors for siRNA expression with following selection on puromycin.
Clonogenic survival. 5×10^3 cells were plated in 6-well plates and treated with different concentrations of drugs for 24 hours. Then fresh drug-free medium was added and the numbers of colonies were estimated 7-14 days later. Growth inhibition assay. […] Cell survival was estimated after an additional 48 hours, using standard Methylene Blue staining followed by extraction and colorimetrical detection of the dye.

[5] = tested on: NF-κB; assay: NF-κB-dependent reporter in H1299-NF-kBLuc cells; assay type: cell-based, human; details: for basal activity of NF-κB: H1299-NF-κBLuc cells, tested side-by-side with 9AA
Protocol: as §1

[6] = tested on: ACHN cells; assay: Experimental chemotherapy of tumor xenografts; assay type: in vivo, nude mice; details: ACHN xenograft nude mice; QC 50 mg/kg; 5-fluorouracil 35 mg/kg
Protocol: NIH Swiss athymic nude, male mice, 5-6 weeks old, were purchased from Harlan. 5×10^6 tumor cells were inoculated into the flanks of mice in 100 μL of PBS. When tumors reached 5 mm in diameter, intraperitoneal injections of drugs were started in 100 μL of a solution of 50% DMSO in PBS (except for quinacrine, which was dissolved in PBS). As vehicle, 50% DMSO solution in PBS was used. Tumor size was measured in three dimensions every other day.

[7] = PLA2 inhibitors, data not shown

| SMILES | toxicity to p53-deficient cells (p53 dependence of cytotoxicity) [4] | activation of p53 by known NF-κB inhibitors ([2]; data not shown) | basal activity of NF-κB [5] | further results |
| --- | --- | --- | --- | --- |
| COc1cccc2c1C(=O)c1c(O)c3c(c(O)c1C2=O)C[C@@](O)(C(=O)CO)C[C@@H]3O[C@H]1C[C@H](N)[C@H](O)[C@H](C)O1 [doxorubicin] | equally or even more toxic than 9AA to p53-deficient cells | – | – | activation of the p53-dependent reporter (p53 transactivation) in RCC [1]: weakly activating; time of peak (maximum) p53 reporter activity ([2]; HT1080 cells): 8 to 12 h; p53-responsive reporter induction in normal kidney samples [3]: no reporter induction |
| O=C(O)c1cc(/N=N/c2ccc(S(=O)(=O)Nc3ccccn3)cc2)ccc1O [sulfasalazine] | – | capable of activating p53 | did not reduce the basal activity | – |
| CC(=O)O[C@H]1C(=O)[C@@]2(C)[C@H]([C@H](OC(=O)c3ccccc3)[C@]3(O)C[C@H](OC(=O)[C@H](O)[C@@H](NC(=O)c4ccccc4)c4ccccc4)C(C)=C1C3(C)C)[C@]1(OC(C)=O)CO[C@@H]1C[C@@H]2O [taxol] | equally or even more toxic than 9AA to p53-deficient cells | – | – | – |
| CCCCCCCCCCCCCCCCSC[C@H](COP(=O)(O)OCC[N+](C)(C)C)NC(=O)CCCCCCCCCCCCCCC [thioetheramide-PC] | – | – | – | induction of p53 [2, 7]: could neither induce p53; inhibition of NF-κB [5, 7]: nor inhibit NF-κB |
| Cc1ccc(S(=O)(=O)/C=C/C#N)cc1 [Bay11-7082] | – | capable of activating p53 | did not reduce the basal activity | – |
| O=c1[nH]cc(F)c(=O)[nH]1 [5-fluorouracil] | – | – | – | weight loss [6]: up to 20% |
| CC[C@]1(O)C[C@@H]2CN(CCc3c([nH]c4ccccc34)[C@@](C(=O)OC)(c3cc4c(cc3OC)N(C)[C@H]3[C@@](O)(C(=O)OC)[C@H](OC(C)=O)[C@]5(CC)C=CCN6CC[C@]43[C@@H]65)C2)C1 [vinblastine] | equally or even more toxic than 9AA to p53-deficient cells | – | – | – |
| COc1cc(CNC(=O)CCCC/C=C/C(C)C)ccc1O [capsaicin] | – | capable of activating p53 | did not reduce the basal activity | – |
| CC(/C=C/C(=O)NO)=C\[C@@H](C)C(=O)c1ccc(N(C)C)cc1 [trichostatin A] | – | – | – | NF-κB-dependent transcription ([5]; H1299 cells, 100 nM TSA, 4 or 16 hours): strong activation of NF-κB-dependent transcription |
| CC[C@@]1(O)C(=O)OCc2c1cc1n(c2=O)Cc2cc3ccccc3nc2-1 [camptothecin] | equally or even more toxic than 9AA to p53-deficient cells | – | – | – |
